From US20240285637A1, “PHOSPHODIESTERASE INHIBITORS FOR THE MITIGATION OF FRAGILE X SYNDROME SYMPTOMS” (THE ROYAL INSTITUTION FOR THE ADVANCEMENT OF …, priority 2021, published 2024)
“Also recorded” adds a separate entry of the source.

Assays:
Fmr1 KO mice [1] = assay: Locomotor activity in activity boxes (open field); type: in vivo, mouse; conditions: sildenafil 7.5 mg/kg i.p.
Description: Behavior experiments-locomotor activity: The locomotor activity was measured in an environment (activity boxes) novel to the animals, as described previously. Briefly, mice were handled for about 5 minutes once a day for one week before the testing. On the day of testing, animals were brought in their home cages to the anteroom (a room adjacent to the testing room separated by a door) and kept there for 30 minutes before drug or vehicle administration. Animals of both genotypes were randomly divided into two groups. One group received an i.p. injection of sildenafil (7.5 mg/kg; drug dissolved in sterilized PBS with 2% DMSO) and the other group an i.p. injection of the vehicle. One hour after the drug or vehicle administrations, the animals were placed in individual activity boxes (AccuScan Instruments, Inc., Columbus, OH, USA) (L×W×H=17.5 cm×10 cm×26 cm) in a dimly lit testing room where their locomotor activity was monitored for 90 min. The activity boxes were equipped with infrared sensors; beam breaks by the animals were used to assess locomotor activity. Data were collected using the Versamax™ Software (version 4.0, 2004; AccuScan Instruments, Inc.). The total horizontal activity for the whole 90 min session was used in the analysis.

[2] = tested on: cerebellar stellate cells; assay: Voltage-clamp recordings of pharmacologically-isolated GABAR currents, HFS paired with depolarization; type: cell-based, mouse; conditions: Fmr1 KO stellate cells
Text: (§1) Cerebellum slice preparation: Mice (P21-35) were anesthetized with isoflurane and immediately decapitated. A block of cerebellar vermis was rapidly dissected from the mouse head and submerged in an ice-cold cutting solution perfused with carbogen gas (95% O2, 5% CO2). Cutting solution contains (in mM): 235 sucrose, 2.5 KCl, 1.25 NaH2PO4, 28 NaHCO3, 0.5 CaCl2, 7 MgCl2, 28 D-glucose, 1 ascorbic acid, and 3 sodium pyruvate (pH 7.4; 305-315 mOsmol/L). The block of vermis was then fastened to a platform, transferred to the slicing chamber and again submerged in ice-cold cutting solution, bubbled with carbogen throughout the remainder of the procedure. Thin slices of cerebellar vermis (300 μm) were obtained with a vibrating tissue sectioner (Leica VT1200; Leica Instruments, Nussloch, Germany). The slices were transferred to oxygenated artificial cerebrospinal fluid (ACSF) and held at room temperature (21° C.-23° C.) for at least 1 h before recordings were performed. […]
(§2) For extracellular stimulations, thin walled borosilicate glass electrodes (OD 1.65 mm, ID 1.15 mm; King Precision Glass Inc, Claremont, CA, USA) were used with a tip resistance of <3 MΩ when filled with ACSF. […] To minimize variability between responses, the stimulating electrode was positioned 50-100 μm away from the recorded cell. […]

[3] = tested on: blood vessels (capillaries) in the molecular layer of the cerebellum; assay: Acute slice vascular reactivity, cerebellar vermis slices (U46619 constriction, NMDA dilation); type: cell-based, mouse; design: effect on the NMDA response (vasodilation) / vasodilation (direct action on blood vessels): dose or concentration left out as unconfirmed; conditions: Fmr1 KO cerebellum, pre-incubation with sildenafil
[4] = tested on: blood vessels in the somatosensory cortex; assay: Acute slice vascular reactivity, somatosensory cortex; type: cell-based, mouse; design: effect on the NMDA response (vasodilation) / vasodilation (direct action on blood vessels): dose or concentration left out as unconfirmed; conditions: Fmr1 KO cortex, pre-incubation with sildenafil, at least some blood vessels
[5] = tested on: cerebellar stellate cells; assay: Current-clamp recordings of PF-evoked synaptic events (GABAR plasticity); type: cell-based, mouse; conditions: Fmr1 KO stellate cells, 100 μM sildenafil
Text: as §1, §2

Fmr1 KO mice [6] = assay: Prepulse inhibition of the acoustic startle response; type: in vivo, mouse; conditions: single dose of sildenafil 7.5 mg/kg i.p.
Text: Behavior experiments-prepulse inhibition: PPI of the acoustic startle response (ASR) was studied in post-pubertal (PD 56-90) animals using an SR-LAB system (San Diego Instruments, San Diego, CA, USA) comprising two sound-attenuating chambers, each equipped with a cylindrical Plexiglas animal enclosure (length 16 cm, inner diameter 8.2 cm). A speaker positioned 24 cm directly above the enclosure provided the broadband tone pulses. A piezoelectric accelerometer affixed to the animal enclosure frame was used to detect and transduce motion resulting from the animals' startle response. Tone pulse parameters were controlled by a microcomputer using the software package (SR-LAB) and interface assembly that also digitized (0-4095), rectified, and recorded stabilimeter readings. All PPI studies were conducted between 09:00 and 17:00 h. Animals randomly received either saline or sildenafil (7.5 mg/kg i.p.) treatment. […] On the first two trials, the magnitude of the startle response to a 30 ms lasting 120 dB tone was measured. […] ASR was measured at each of the four prepulse intensities on five trials; animals were randomly presented with the startle tone alone during the other 10 trials. […]

[7] = tested on: cerebellar stellate cells; assay: Cell-attached recordings of action currents (intrinsic plasticity) after HFS of parallel fibers; type: cell-based, mouse; conditions: Fmr1 KO stellate cells, pre-treatment with 100 μM sildenafil
Text: as §1, §2

[8] = tested on: cerebellar stellate cells; assay: Minimal stimulation protocol, evoked IPSCs before and after HFS (failure rate of GABAergic transmission); type: cell-based, mouse; conditions: Fmr1 KO stellate cells

CCCc1nn(C)c2c(=O)[nH]c(-c3cc(S(=O)(=O)N4CCN(C)CC4)ccc3OCC)nc12 [sildenafil]
enhanced locomotor activity / deficits in locomotion (Fmr1 KO mice [1]): normalized the enhanced locomotor activity; also recorded: rescued
GABAR plasticity (NMDAR-mediated inhibitory synapse strengthening), voltage-clamp ([2]; 100 μM sildenafil): rescued the complete loss of GABAR plasticity
baseline properties of the cells ([2]; current-clamp and voltage-clamp, data not shown): did not, however, affect baseline properties
effect on the NMDA response (vasodilation) [3]: little or no effect
effect on the NMDA response (vasodilation) [4]: rescue some of the deficits
GABAR plasticity (NMDAR-mediated inhibitory synapse strengthening), current-clamp [5]: rescued the complete loss of GABAR plasticity
deficits in prepulse inhibition (PPI) (Fmr1 KO mice [6]): fully correct deficits; also recorded: rescued
long-term increase in baseline firing rates following HFS of PFs [7]: restored the long-term increase in baseline firing rates
failure rate (mean) ([8]; 10−100 μM sildenafil in the patch electrode, baseline, n=5): 90.9+/−3.57%
failure rate, failed events (mean) ([8]; 10−100 μM sildenafil in the patch electrode, post-HFS, n=5): 59.44+/−8.36%
iLTP following HFS of parallel fibers ([8]; sildenafil in the patch electrode): remarkable restoration of iLTP
